For test [1], the system named is K-Ras^G12D MEFs. The test is described as follows: Proliferation assay (cell numbers) of K-Ras^G12D MEFs in starvation medium. The format is cell-based, mouse. As to the method: (§1) Cell culture experiments were performed at 37° C. and 5% CO2 in DMEM/F12 with 10% dialyzed FBS (molecular weight cut-off 10,000; Gemini Biosystems), 100 U/mL penicillin, 100 μg/mL streptomycin, 5 mM glucose and 2 mM glutamine. For proliferation assays, MEFs were plated in complete medium, 5 h later briefly rinsed and then cultured in starvation medium as indicated. For EAA titration experiments, EAAs were supplemented at indicated percentages of 1×MEM amino acid solution (M5550, Sigma). Cancer cell lines were cultured in complete medium for 1 day prior to starvation. Numbers of adherent cells, which are >95% viable as assessed by Trypan Blue exclusion were determined using a Multisizer 4 Coulter Counter (Beckman). For mTOR activation and localization experiments, cells were rinsed and then incubated in EAA starvation medium (DMEM/F12 lacking all amino acids except glutamine) for 1 h, and subsequently placed in medium supplemented with EAAs (1×MEM amino acid solution), albumin (3%, if not stated otherwise) or fresh EAA-free starvation medium for indicated periods of time.

The subject of the next test is wild type MEFs. The test is described as follows: Lysosomal degradation of DQ-BSA in wild type MEFs. The format is cell-based, mouse. Particulars: 250 nM torin 1; 6 h DQ-BSA uptake. As to the method: For live imaging, medium was supplemented with 0.3 mg/ml DQ Green BSA. 1 h prior to imaging, 50 nM LysoTracker Red and 0.2 μg/ml Hoechst were added. Cells were imaged either immediately after addition of DQ-BSA and torin 1, or after 5-6 h incubation using a Zeiss LSM 5 LIVE.
To further investigate how Ras and mTORC1 signaling regulated lysosomal proteolysis of internalized proteins, the effects of mTORC1 inhibition and K-Ras activation were compared. […] Thus, K-Ras enhances a cell's ability to take up and degrade extracellular proteins. In contrast, whereas mTORC1 specifically restricts their lysosomal degradation.

Test [2] has as its system K-Ras^G12D MEFs. The test is described as follows: Uptake of fluorescently labeled dextran or albumin. Particulars: pre-treated 1 h with 250 nM torin 1; 30 min uptake. The format is cell-based, mouse. The protocol:
To characterize how cells derive leucine from extracellular proteins, cellular albumin uptake was investigated using constitutively fluorescent albumin and intracellular albumin proteolysis using a self-quenched albumin that emits fluorescence upon degradation (DQ-BSA) (Reis et al., 1998). […] It was then determined whether lysosomal albumin degradation was required to support growth during leucine starvation. […] Ras GTPases can promote cellular uptake of macromolecules through macropinocytosis (Bar-Sagi and Feramisco, 1986). […] To investigate whether this endocytic pathway contributed to albumin-dependent growth, cells were treated with the Na^+/H^+ exchange inhibitor EIPA, which blocks macropinocytosis but not other endocytic pathways (West et al., 1989).
To distinguish these possibilities, it was first tested whether mTORC1 inhibition increased internalization of extracellular macromolecules. […] It was next examined whether mTORC1 inhibition affected lysosomal degradation of internalized proteins.

The subject of test [3] is K-Ras^G12D MEFs. The test is described as follows: 14C-leucine labeling of proteins and lipids. The format is cell-based, mouse. Particulars: mean±STDEV (n=3); control cells 364±69. As to the method: Cells were cultured in full medium containing 0.5 μCi (0.4%) L-[^14C(U)]-Leucine (Perkin Elmer) for 24 h. Total lipid and protein fractions were isolated essentially according to the Blight-Dyer method (Bligh and Dyer, 1959). Protein pellets were resolubilized in 6 M guanidine hydrochloride, then transferred to scintillation fluid. Organic phase-dissolved lipids were transferred to scintillation vials, and after solvent evaporation, resuspended in scintillation fluid. ^14C-leucine content of proteins and lipids was quantified by scintillation counting.

Test [4] has as its system K-Ras mutant tumor cell lines (KRPC, MiaPaCa-2, A549). The test is described as follows: Proliferation of K-Ras mutant tumor cell lines. The format is cell-based. Particulars: 250 nM torin 1. As to the method: Dashed lines indicate starting cell numbers. P-values were calculated using a two-tailed unpaired t-test. ***p<0.001. […] Under experimental conditions, cells have abundant glucose supplied in their medium and are thus unlikely to utilize leucine for lipid as opposed to protein synthesis during anabolic growth. Consistent with this, when cells were labeled with ^14C-leucine, the ratio of protein to lipid incorporation of label was: control cells 364±69, torin-1 treated cells 203±27, raptor-deficient cells 87±3. Data are represented as mean±STDEV (n=3).
as §1, with “For mTOR activation and localization experiments, cells were rinsed and then incubated in EAA starvation medium (DMEM/F12 lacking all amino acids except glutamine) for 1 h, and subsequently placed in medium supplemented with EAAs (1×MEM amino acid solution), albumin (3%, if not stated otherwise) or fresh EAA-free starvation medium for indicated periods of time.” left out

Test [5] deals with Ulk1/2 DKO MEFs expressing K-Ras^G12V. The test is described as follows: Proliferation of Ulk1/2 DKO MEFs expressing K-Ras^G12V. The format is cell-based, mouse. Particulars: leucine-free medium containing 3% albumin; 250 nM torin 1. As to the method:
(§2) K-Ras^G12D MEFs were pre-treated for 1 h with 250 nM torin 1 and then incubated with fluorescently labeled dextran or albumin. Intracellular dextran or albumin was quantified after 30 min uptake. Data are represented as mean±STDEV (n=6 fields of view with >10 cells each). P-values were calculated using a two-tailed unpaired t-test. n.s. not significant. […] Uptake of fluorescently labeled dextran was quantified after 30 min uptake. Data are represented as mean±STDEV (n=8 fields of view with >10 cells each). P-values were calculated using a two-tailed unpaired t-test. n.s. not significant. […] K-Ras^G12D MEFs were pre-treated for 1 h with 250 nM torin 1, then incubated with fluorescently labeled dextran for indicated periods of time. Data are represented as mean±STDEV (n=8 fields of view with >10 cells each). […] Mean fluorescence intensity per cell was determined after 6 h of DQ-BSA uptake. Data are represented as mean±STDEV (n=7 fields of view with >15 cells each). P-values were calculated using a two-tailed unpaired t-test. ***p<0.001, n.s. not significant. […] DQ-BSA fluorescence intensity is represented as mean±STDEV (n=7 fields of view with >20 cells each). P-values were calculated using a two-tailed unpaired t-test. ***p<0.001. […] DQ-BSA fluorescence intensity is represented as mean±STDEV (n=6 fields of view with >30 cells each). P-values were calculated using a two-tailed unpaired t-test. […]

Test [6] concerns Ulk1/2 wild type and DKO MEFs expressing K-Ras^G12V. The test is described as follows: DQ-BSA proteolysis in Ulk1/2 wild type and DKO MEFs expressing K-Ras^G12V. Particulars: 250 nM torin 1; Ulk1/2 wild type versus DKO. The format is cell-based, mouse. The protocol:
as §2

Each structure is given as a SMILES string.

`CCC(=O)N1CCN(c2ccc(-n3c(=O)ccc4cnc5ccc(-c6cnc7ccccc7c6)cc5c43)cc2C(F)(F)F)CC1` [torin 1]: the cell proliferation result is “strongly decreased cell proliferation” with K-Ras^G12D MEFs [1] (3% albumin, EAAs abundant extracellularly, 250 nM torin 1, day 3); “significantly improved cell proliferation” in the test on K-Ras^G12D MEFs [1] (3% albumin, low EAA concentrations, 250 nM torin 1, day 3); “only slightly reduced proliferation” in the test on K-Ras^G12D MEFs [1] (3% albumin, over a 10-fold range of EAA concentrations, 250 nM torin 1); “decreased with increasing doses” in the test on K-Ras^G12D MEFs [1] (free leucine provided extracellularly, increasing doses of torin 1, day 3); “progressively improved cell proliferation” in the test with K-Ras^G12D MEFs [1] (leucine-free medium +3% albumin, torin 1 raised from 50 to 300 nM); “induced cells to robustly proliferate” in the test on K-Ras^G12D MEFs [1] (medium lacking isoleucine, lysine or arginine, 3% albumin, 250 nM torin 1). Moreover, the cell proliferation entry in test [4] (leucine-containing medium +3% albumin, day 3) is recorded as “strongly decreased their proliferation”; in test [4] (leucine-free medium +3% albumin, day 4) it was “induced several carcinoma cell lines harboring activating Ras mutations to proliferate”; in test [5] it was “enhanced proliferation”. In the test with wild type MEFs, the DQ-BSA fluorescence result is “significant increase”. Moreover, the “cellular uptake of fluorescently labeled dextran or albumin” value in the test on K-Ras^G12D MEFs [2] is “neither torin 1 nor Raptor knockdown elevated cellular uptake”. Besides, the “ratio of protein to lipid incorporation of 14C-leucine label” value in the test with K-Ras^G12D MEFs [3] worked out at 203±27. Moreover, the “DQ-BSA proteolysis in response to torin 1” value in test [6] was “comparable increase in DQ-BSA proteolysis”.

These data come from US20210346354A1, “MACROPINOCYTOSIS IN CANCER” (Memorial Sloan-Kettering Cancer Center, priority 2015, published 2021).
